Experimental data published in article PMC11462456 (Chemical Science, 2024).

Tests used:
CRBN = target: T1, CRBN (Homo sapiens, UniProt Q96SW2); test: E3 ligase homo-degradation by western blot, CRBN; format: cell-based; conditions: HEK293 cells, 4 h, 0.1, 1 and 10 μM
T1 construct: western blot analysis of the levels of CRBN and VHL E3 ligase in cell lysate; endogenous in cells; host or cells: HEK293 (ATCC)
Description: 4. Biological experiments
Primary antibodies used for western blotting included anti-human BRD2(1:2000, rabbit monoclonal, Abcam, ab139690), anti-human BRD3 (1:1000, rabbit monoclonal, Abcam, ab264420), anti-human BRD4 (E2A7X) (1:1000, rabbit monoclonal, Cell Signaling Technology, #13440), anti-human VHL (1:1000, rabbit polyclonal, Cell Signaling Technology, #68547), anti-human CRBN (D8H3S) (1:1000, rabbit polyclonal, Cell Signaling Technology, #71810), anti-human alpha Tubulin, clone B-5-1-2 (1:5000, mouse monoclonal, Merck Life Science, # 32-2500).Secondary antibodies used for western blot included: anti-mouse horseradish peroxidase-linked antibody (1:3000, sheep, GE Healthcare Life Sciences, #NA931V), and anti-rabbit horseradish peroxidase-linked antibody (1:8000, donkey, GE Healthcare Life Sciences, #NA934V). Reagent for degradation assay and compounds […]
dr. Serge Van Calenbergh, Ghent University).
4.2 Cell lines and culture
HEK293, A549, SKOV-3, HCT116 cells (ATCC)were grown in DMEM (Gibco),and all cells were supplemented with 10% (v/v) fetal bovine serum (FBS) (Sigma), […] penicillin/streptomycin solution (Thermo Fisher Scientific) and maintained at 37 °C and 5% CO2 in a humidified atmosphere. All cells used were tested monthly using the Mycoalert Mycoplasma Detection Kit (cat. no. LT07-318, Lonza) to exclude mycoplasma contamination.
4.3 Degradation assays by Western blot
General method of Western blot: Lysates were sonicated and centrifuged at 4 °C at 20000 g for 15 min, and the supernatants were transferred to new tubes. Protein concentration of cell lysates was measured using the DC Protein Assay kit (BIO-RAD) following manufacturer's instructions. Cell lysates were mixed with reducing sample buffer (0.5 M Tris-HCl (pH 6.8), 43% glycerol, 9.2% SDS, 5% 2-mercaptoethanol, 5% bromophenol blue) and boiled for 5 min at 95°C. […]
Figure S5 Homo-degradation effect in Dual-ligand PROTACs. […] Subsequently, cell lysates were prepared and the protein levels of CRBN or VHL E3 ligase were assessed by Western blotting. […]

[1] = Body weight change in A549 xenograft mice; format: in vivo, mouse; conditions: i.p.
Experimental: 4.7 Therapeutic anti-tumor evaluation
Animal experiments were carried out in accordance with the regulatory guidelines of the Ethics Committee of the Ghent University Hospital. 30 female Swiss Nude Immunodeficient mice (Crl:NU(Ico)-Foxn1nu) of 5 weeks-6 weeks old (Charles River) were subcutaneously injected with […] A549 (1:1 serum free DMEM medium: Matrigel (Corning)). 10 days post inoculation ,mice were randomized into five groups (6 mice/group) with equal average tumor volume and treatment was started: (1) the control group: Vehicle(20% PEG400 and 5% […]
2J2V group (0.1 mg/kg), (5) the 2J2V group(0.5 mg/kg).Mice were treated on Day 0, Day 2, Day 4, Day 11, Day 18 by intraperitoneal injection. Tumor growth was monitored every 3 days by caliper, and the tumor volume was calculated as 1/2 × length × width2. Body weight was monitored every 3 days by weighing scale. […]
The reduced […]
proteins were alkylated with 40 mM iodoacetamide (IAA) in the dark for 30 minutes. Then samples were acidified with 1.2% aqueous phosphoric acid and mixed with 6× volumes of 90% methanol, 100 mM TEAB, pH 7.1 (S-Trap binding buffer). The samples were loaded onto the (1 picture or pasted object on this page, not shown here)

A549 cells = test: CellTiter-Glo 2D metabolic activity assay, A549; format: cell-based; conditions: Homo sapiens, 2D culture, 48 h
Experimental: 4.4 Cell viability assay on 2D cells cultures
HEK293, HCT116, A549,andSKOV-3 cells were seeded in 96-well tissue culture plates at a density of 2000-3000 cells per well in 100 µl of growth medium and incubated overnight at 37 °C with 5% CO2. The following day, the cells were treated with various concentrations of compounds or 0.05% DMSO for 48 h. After treatment, add 100 μl of Cell Titer-Glo® 2.0 Reagent (cat. no. G9243, Promega) in each well, then the 96-well plates were put on an orbital shaker for 10 min and then allow the plate to incubate at room temperature for 10-20min to stabilize the luminescent signal. Luminescence readout (Gen5 Data Analysis Software v3.08.01) was performed to record luminescence.
(1 picture or pasted object on this page, not shown here)

T1 sequence (Q96SW2 whole entry): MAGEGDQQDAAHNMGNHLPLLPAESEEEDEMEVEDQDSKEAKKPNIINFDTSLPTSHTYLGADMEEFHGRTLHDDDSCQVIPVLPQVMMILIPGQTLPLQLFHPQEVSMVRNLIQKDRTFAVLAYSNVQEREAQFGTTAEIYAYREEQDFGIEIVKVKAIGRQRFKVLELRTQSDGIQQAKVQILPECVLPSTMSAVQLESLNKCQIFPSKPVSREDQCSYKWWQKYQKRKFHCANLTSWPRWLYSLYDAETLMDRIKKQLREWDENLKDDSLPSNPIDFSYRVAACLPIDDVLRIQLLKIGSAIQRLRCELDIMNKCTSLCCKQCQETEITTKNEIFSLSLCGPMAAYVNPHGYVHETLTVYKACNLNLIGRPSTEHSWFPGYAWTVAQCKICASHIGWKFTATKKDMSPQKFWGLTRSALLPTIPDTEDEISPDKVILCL

SMILES: Cc1sc2c(c1C)C(c1ccc(Cl)cc1)=N[C@@H](CC(=O)NCCOCCOCCNC(=O)C[C@H](NC(=O)COCCOCCOCCOCCn1cc(CCC(=O)N[C@@H](CC(=O)NCCOCCOCCNc3cccc4c3C(=O)N(C3CCC(=O)NC3=O)C4=O)C(=O)NCCOCCOCCNc3cccc4c3C(=O)N(C3CCC(=O)NC3=O)C4=O)nn1)C(=O)NCCOCCOCCNC(=O)C[C@@H]1N=C(c3ccc(Cl)cc3)c3c(sc(C)c3C)-n3c(C)nnc31)c1nnc(C)n1-2 (stereo partly shown) [2J2P]
- CRBN level (homo-degradation) (CRBN): did not induce any significant decrease of CRBN

SMILES: Cc1ncsc1-c1ccc(C(C)NC(=O)C2CC(O)CN2C(=O)C(NC(=O)COCCOCCNC(=O)CC(NC(=O)CCc2cn(CCOCCOCCOCCOCC(=O)NC(CC(=O)NCCOCCOCCNC(=O)CC3N=C(c4ccc(Cl)cc4)c4c(sc(C)c4C)-n4c(C)nnc43)C(=O)NCCOCCOCCNC(=O)CC3N=C(c4ccc(Cl)cc4)c4c(sc(C)c4C)-n4c(C)nnc43)nn2)C(=O)NCCOCCOCC(=O)NC(C(=O)N2CC(O)CC2C(=O)NC(C)c2ccc(-c3scnc3C)cc2)C(C)(C)C)C(C)(C)C)cc1 (stereo not shown) [2J2V]
- body weight change ([1]; 0.1 mg kg−1): no detectable decrease in body weight
- body weight change ([1]; 0.5 mg kg−1): slight body weight decrease

SMILES: Cc1ncsc1-c1ccc(CNC(=O)C2CC(O)CN2C(=O)C(NC(=O)COCCOCCOCCNC(=O)CC2N=C(c3ccc(Cl)cc3)c3c(sc(C)c3C)-n3c(C)nnc32)C(C)(C)C)cc1 (stereo not shown) [MZ1, reference compound]
- EC50 (A549 cells): 400 nM
